Assays:
[1] = test system: NCI-N87; assay: Antiproliferative activity against human NCI-N87 cells; format: functional, cell-based
[2] = target: Receptor tyrosine-protein kinase erbB-2 (Homo sapiens) (UniProt P04626); assay: Inhibition of HER2
[3] = test system: A2780; assay: Antiproliferative activity against human A2780 cells; format: functional, cell-based
[4] = target: Epidermal growth factor receptor (Homo sapiens) (UniProt P00533); assay: Inhibition of EGFR
[5] = Antitumor activity against human GEO cells xenografted in po dosed athymic mouse assessed as minimum effective dose; format: functional; conditions: read-out: MED
[6] = target: Tyrosine-protein kinase Lck (Homo sapiens, UniProt P06239); assay: Inhibition of LCK
[7] = target: Vascular endothelial growth factor receptor 2 (Homo sapiens, UniProt P35968); assay: Inhibition of KDR
[8] = Drug level in BALB/c mouse at 15 mg/kg, po after 24 hrs; format: ADME, organism-based; design: dose 15 mg/kg, route oral; conditions: in vivo, read-out: Drug uptake
[9] = Drug level in BALB/c mouse at 15 mg/kg, po after 3 hrs; format: ADME, organism-based; design: dose 15 mg/kg, route oral; conditions: in vivo, read-out: Drug uptake
[10] = Fraction unbound in BALB/c mouse serum at 10 uM by equilibrium dialysis; format: ADME, cell-free
[11] = AUC ( 0 to 24 hrs) in BALB/c mouse at 15 mg/kg, po; format: ADME, organism-based; design: time < 24 hr, dose 15 mg/kg, route oral; conditions: plasma
[12] = test system: NCI-N87; assay: Antitumor activity against human NCI-N87 cells xenografted in po dosed athymic mouse assessed as minimum effective dose administered Q1D for 14 days; conditions: 336 h, read-out: MED
[13] = AUC ( 0 to 24 hrs) in BALB/c mouse at 240 mg/kg, po; format: ADME, organism-based; design: time < 24 hr, dose 240 mg/kg, route oral; conditions: plasma
[14] = Drug level in BALB/c mouse at 240 mg/kg, po after 3 hrs; format: ADME, organism-based; design: dose 240 mg/kg, route oral; conditions: in vivo, read-out: Drug uptake
[15] = Drug level in BALB/c mouse at 240 mg/kg, po after 24 hrs; format: ADME, organism-based; design: dose 240 mg/kg, route oral; conditions: in vivo, read-out: Drug uptake
[16] = Cmax in BALB/c mouse at 50 mg/kg, po; format: ADME, organism-based; design: dose 50 mg/kg, route oral; conditions: in vivo
[17] = Drug level in BALB/c mouse at 50 mg/kg, po after 4 hrs; format: ADME, organism-based; design: dose 50 mg/kg, route oral; conditions: in vivo, read-out: Drug uptake
[18] = Homo sapiens, NCI-N87, read-out: IC50
[19] = Homo sapiens, A2780, read-out: IC50

Sequence of Receptor tyrosine-protein kinase erbB-2 (Homo sapiens) (P04626 whole entry, looked up): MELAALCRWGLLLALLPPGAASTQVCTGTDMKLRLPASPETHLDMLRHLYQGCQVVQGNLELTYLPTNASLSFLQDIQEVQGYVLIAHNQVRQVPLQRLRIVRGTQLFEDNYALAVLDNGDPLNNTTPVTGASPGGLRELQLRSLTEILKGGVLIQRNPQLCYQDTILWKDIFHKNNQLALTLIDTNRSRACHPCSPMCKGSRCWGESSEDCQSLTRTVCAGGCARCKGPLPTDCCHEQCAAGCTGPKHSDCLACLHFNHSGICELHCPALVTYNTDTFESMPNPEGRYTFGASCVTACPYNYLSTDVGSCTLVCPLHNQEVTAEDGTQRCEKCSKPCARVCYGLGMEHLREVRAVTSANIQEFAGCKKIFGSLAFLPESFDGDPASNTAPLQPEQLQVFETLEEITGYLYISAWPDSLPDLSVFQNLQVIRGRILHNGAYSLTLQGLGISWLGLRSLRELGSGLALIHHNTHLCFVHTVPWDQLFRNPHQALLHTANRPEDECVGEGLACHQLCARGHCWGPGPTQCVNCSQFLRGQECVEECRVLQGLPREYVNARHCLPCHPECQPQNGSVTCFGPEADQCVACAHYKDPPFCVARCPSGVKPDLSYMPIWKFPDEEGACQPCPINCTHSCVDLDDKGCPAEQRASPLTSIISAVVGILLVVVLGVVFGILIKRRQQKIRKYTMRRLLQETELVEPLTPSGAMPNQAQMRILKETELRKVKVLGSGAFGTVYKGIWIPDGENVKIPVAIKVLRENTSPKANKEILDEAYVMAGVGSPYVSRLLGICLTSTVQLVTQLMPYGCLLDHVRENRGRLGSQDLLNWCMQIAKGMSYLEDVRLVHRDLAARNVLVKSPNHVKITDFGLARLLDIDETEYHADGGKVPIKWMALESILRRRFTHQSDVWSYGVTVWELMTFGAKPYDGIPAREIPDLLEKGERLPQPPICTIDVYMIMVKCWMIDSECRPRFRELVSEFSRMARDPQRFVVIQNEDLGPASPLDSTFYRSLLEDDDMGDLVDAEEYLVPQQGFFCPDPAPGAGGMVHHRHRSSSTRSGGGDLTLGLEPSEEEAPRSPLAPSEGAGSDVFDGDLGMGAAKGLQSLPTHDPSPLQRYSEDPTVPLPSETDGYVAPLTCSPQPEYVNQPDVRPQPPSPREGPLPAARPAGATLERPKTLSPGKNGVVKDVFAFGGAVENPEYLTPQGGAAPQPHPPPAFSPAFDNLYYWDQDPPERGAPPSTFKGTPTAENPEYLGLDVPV
Sequence of Epidermal growth factor receptor (Homo sapiens) (P00533 whole entry, looked up): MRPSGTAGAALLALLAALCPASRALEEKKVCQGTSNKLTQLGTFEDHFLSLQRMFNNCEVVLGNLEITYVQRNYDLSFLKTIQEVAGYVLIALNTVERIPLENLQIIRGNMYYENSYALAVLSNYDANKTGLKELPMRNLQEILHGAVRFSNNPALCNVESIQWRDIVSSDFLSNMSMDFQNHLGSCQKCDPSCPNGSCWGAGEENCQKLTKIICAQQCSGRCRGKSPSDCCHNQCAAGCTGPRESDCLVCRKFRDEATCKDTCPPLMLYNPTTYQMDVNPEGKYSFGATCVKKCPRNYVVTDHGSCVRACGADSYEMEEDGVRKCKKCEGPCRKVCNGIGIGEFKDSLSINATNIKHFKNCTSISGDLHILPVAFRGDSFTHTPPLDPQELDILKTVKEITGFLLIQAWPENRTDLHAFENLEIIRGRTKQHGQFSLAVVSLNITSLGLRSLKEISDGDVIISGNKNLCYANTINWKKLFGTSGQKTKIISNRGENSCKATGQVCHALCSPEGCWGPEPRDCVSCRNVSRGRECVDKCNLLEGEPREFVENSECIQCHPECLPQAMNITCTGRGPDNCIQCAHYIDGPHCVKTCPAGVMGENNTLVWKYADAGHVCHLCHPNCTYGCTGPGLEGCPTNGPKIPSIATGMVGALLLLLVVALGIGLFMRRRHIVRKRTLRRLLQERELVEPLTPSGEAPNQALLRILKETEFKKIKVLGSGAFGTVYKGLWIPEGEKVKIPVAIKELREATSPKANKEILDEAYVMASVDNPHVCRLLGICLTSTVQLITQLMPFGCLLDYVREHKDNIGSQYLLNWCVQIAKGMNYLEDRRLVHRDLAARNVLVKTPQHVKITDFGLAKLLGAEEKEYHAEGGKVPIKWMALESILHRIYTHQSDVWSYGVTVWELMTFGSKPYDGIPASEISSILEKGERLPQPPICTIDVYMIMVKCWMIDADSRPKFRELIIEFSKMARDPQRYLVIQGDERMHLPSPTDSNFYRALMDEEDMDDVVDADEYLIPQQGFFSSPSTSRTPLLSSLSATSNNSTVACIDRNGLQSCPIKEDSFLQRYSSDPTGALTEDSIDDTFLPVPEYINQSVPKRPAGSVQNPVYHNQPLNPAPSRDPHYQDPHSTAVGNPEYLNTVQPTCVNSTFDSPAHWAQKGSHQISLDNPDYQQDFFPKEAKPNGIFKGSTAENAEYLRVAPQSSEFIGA
Sequence of Vascular endothelial growth factor receptor 2 (P35968 whole entry): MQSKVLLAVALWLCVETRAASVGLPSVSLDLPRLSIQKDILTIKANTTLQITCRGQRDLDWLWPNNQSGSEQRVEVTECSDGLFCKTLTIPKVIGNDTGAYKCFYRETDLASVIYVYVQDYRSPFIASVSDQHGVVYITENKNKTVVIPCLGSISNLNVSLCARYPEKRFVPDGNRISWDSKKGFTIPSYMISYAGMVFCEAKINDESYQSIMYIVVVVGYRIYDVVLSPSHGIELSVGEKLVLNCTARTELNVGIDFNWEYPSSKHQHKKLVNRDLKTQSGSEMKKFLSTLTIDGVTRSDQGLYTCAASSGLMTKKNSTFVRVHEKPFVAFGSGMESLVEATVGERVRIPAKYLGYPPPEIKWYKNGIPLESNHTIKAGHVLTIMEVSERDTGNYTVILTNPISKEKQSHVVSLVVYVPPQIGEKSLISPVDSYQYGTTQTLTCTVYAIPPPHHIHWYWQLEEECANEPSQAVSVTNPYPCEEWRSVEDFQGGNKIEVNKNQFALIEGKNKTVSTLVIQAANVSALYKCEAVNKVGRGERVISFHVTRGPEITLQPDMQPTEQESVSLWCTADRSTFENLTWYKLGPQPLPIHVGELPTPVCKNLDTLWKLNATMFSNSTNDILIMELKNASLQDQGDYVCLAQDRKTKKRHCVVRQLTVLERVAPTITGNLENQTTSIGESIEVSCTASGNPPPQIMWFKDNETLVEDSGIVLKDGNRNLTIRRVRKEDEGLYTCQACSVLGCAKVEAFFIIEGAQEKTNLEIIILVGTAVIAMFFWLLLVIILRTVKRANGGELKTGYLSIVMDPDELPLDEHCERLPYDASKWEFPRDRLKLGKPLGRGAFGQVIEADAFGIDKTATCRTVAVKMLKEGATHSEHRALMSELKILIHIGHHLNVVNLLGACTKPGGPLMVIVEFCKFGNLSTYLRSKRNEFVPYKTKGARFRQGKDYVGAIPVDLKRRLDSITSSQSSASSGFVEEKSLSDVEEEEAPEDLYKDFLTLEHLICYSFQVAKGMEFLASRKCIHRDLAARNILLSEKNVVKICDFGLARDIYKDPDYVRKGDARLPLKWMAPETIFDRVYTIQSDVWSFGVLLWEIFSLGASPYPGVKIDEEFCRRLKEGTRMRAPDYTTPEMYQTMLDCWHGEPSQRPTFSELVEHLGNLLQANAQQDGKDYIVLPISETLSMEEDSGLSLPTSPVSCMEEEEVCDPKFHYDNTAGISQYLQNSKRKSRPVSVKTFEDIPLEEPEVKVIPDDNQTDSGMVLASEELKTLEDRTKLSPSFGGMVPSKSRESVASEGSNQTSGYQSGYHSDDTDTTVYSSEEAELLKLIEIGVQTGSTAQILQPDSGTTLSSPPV
Sequence of Tyrosine-protein kinase Lck (P06239 whole entry): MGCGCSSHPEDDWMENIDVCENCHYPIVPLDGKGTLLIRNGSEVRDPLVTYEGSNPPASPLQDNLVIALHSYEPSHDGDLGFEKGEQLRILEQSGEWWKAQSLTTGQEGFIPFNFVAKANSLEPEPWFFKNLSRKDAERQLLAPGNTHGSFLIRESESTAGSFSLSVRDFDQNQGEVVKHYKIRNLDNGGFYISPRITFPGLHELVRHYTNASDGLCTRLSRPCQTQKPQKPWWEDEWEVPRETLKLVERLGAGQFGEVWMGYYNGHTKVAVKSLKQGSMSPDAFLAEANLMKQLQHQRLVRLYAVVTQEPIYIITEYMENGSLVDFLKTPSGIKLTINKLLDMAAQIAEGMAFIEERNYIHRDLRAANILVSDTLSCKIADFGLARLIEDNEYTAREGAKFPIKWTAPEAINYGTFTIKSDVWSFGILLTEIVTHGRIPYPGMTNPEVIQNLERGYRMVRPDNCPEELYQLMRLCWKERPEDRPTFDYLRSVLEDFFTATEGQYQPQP

| Structure (SMILES) | IC50 [2] [nM] | IC50 [4] [nM] | IC50 [3, 19] [nM] | IC50 [1, 18] [nM] | further results |
| --- | --- | --- | --- | --- | --- |
| Cn1ncc2cc(Nc3ncnn4ccc(COC[C@@H]5CNCCO5)c34)ccc21 | > 1000 | > 1000 |  |  | IC50 ([1]; nci-n87): Not Active; IC50 ([3]; a2780): Not Active |
| C#Cc1cccc(Nc2ncnn3ccc(COC[C@@H]4CNCCO4)c23)c1 | 670 | 20 | 3900 | 4400 |  |
| NC1CCN(Cc2ccn3ncnc(Nc4ccccc4)c23)CC1 |  |  | 3700 | 140 |  |
| CC(C)Nc1ncnn2ccc(CN3CCC(N)CC3)c12 | > 1000 | 880 |  |  |  |
| Cc1ccccc1Nc1ncnn2ccc(CN3CCC(N)CC3)c12 | 660 | 20 | > 5000 | 3300 |  |
| NC1CCN(Cc2ccn3ncnc(Nc4cc(Cl)cc(Cl)c4)c23)CC1 | 130 | 34 | 4000 | 3360 |  |
| Fc1cccc(Cn2ncc3cc(Nc4ncnn5ccc(COC[C@@H]6CNCCO6)c45)ccc32)c1 |  |  |  |  | minimal effective dose [12]: 60 mg/kg; AUC(0-t) at 24 h [13]: 100 µM·h; concentration at 3 h [14]: 5.8 µM; concentration at 24 h [15]: 0.1 µM; Cmax [16]: 9.5 µM; fraction unbound at 10 µM [10]: 0.026 |
| NC1CCN(Cc2ccn3ncnc(Nc4ccc5c(cnn5Cc5cccc(F)c5)c4)c23)CC1 |  | 22 |  |  | minimal effective dose [12]: 60 mg/kg; Cmax [16]: 4.5 µM; concentration at 4 h [17]: 2.7 µM |
| Cc1c(NC(=O)OC[C@@H]2COCCN2)cn2ncnc(Nc3ccc4c(cnn4Cc4cccc(F)c4)c3)c12 [AC-480] |  |  |  |  | minimal effective dose [5]: 120 mg/kg; minimal effective dose [12]: 120 mg/kg |

The next lines start with results.

| IC50 [2] [nM] | IC50 [4] [nM] | IC50 [3, 19] [nM] | Structure (SMILES) | IC50 [1, 18] [nM] | further results |
| --- | --- | --- | --- | --- | --- |
| 950 | 360 |  | Cn1ncc2cc(Nc3ncnn4ccc(CN5CCC(N)CC5)c34)ccc21 |  | IC50 ([1]; nci-n87): Not Active; IC50 ([3]; a2780): Not Active |
| 10 | 7 | 2300 | C#Cc1cccc(Nc2ncnn3ccc(CN4CCC(N)CC4)c23)c1 | 120 | minimal effective dose [5]: 15 mg/kg |
| 20 | 5 | > 5000 | Cc1cccc(Nc2ncnn3ccc(CN4CCC(N)CC4)c23)c1 | 140 | minimal effective dose [5]: 60 mg/kg |
| 50 | 6 | > 5000 | Cc1ccc(Nc2ncnn3ccc(CN4CCC(N)CC4)c23)cc1 | 790 |  |
| 32 | 6 | > 5000 | NC1CCN(Cc2ccn3ncnc(Nc4cccc(F)c4)c23)CC1 | 280 |  |
| 9 | 4 | > 5000 | NC1CCN(Cc2ccn3ncnc(Nc4cccc(Cl)c4)c23)CC1 | 60 | minimal effective dose [5]: 60 mg/kg |
| 6 | 4 | 2600 | NC1CCN(Cc2ccn3ncnc(Nc4cccc(Br)c4)c23)CC1 | 50 |  |
| 10 | 6 | > 5000 | NC1CCN(Cc2ccn3ncnc(Nc4ccc(F)c(Cl)c4)c23)CC1 | 120 | minimal effective dose [5]: 15 mg/kg; IC50 [6]: 370 nM; IC50 [7]: 110 nM; concentration at 24 h [8]: 6.8 µM; concentration at 3 h [9]: 7.2 µM; fraction unbound at 10 µM [10]: 0.012; AUC(0-t) at 24 h [11]: 160 µM·h |
| 210 | 70 | > 5000 | COc1ccc(Nc2ncnn3ccc(CN4CCC(N)CC4)c23)cc1Cl | 1210 |  |

Source: ChEMBL document CHEMBL1641446, “Novel pyrrolo[2,1-f][1,2,4]triazin-4-amines: Dual inhibitors of EGFR and HER2 protein tyrosine kinases” (Bioorg Med Chem Lett, 2011)
